Experimental findings from patent US8092838B2, “Use of hydrogen sulfide in the treatment of eye diseases” (The University of Houston System, priority 2005, dated 2012) are described below.

The subject of data set [1] is isolated porcine iris-ciliary bodies. The class given is cell-based. To be noted: for effect on NaHS-induced inhibition of evoked [3H]NE release: modifier 1 mM, NaHS 1 μM.
The next data set deals with isolated porcine iris. As to the kind of experiment: Relaxation of carbachol-induced tone in isolated porcine iris muscle strips. Type of data set: cell-based.
Data set [2] relates to isolated porcine iris-ciliary body. The data set can be described thus: Norepinephrine concentration in isolated porcine iris-ciliary body (HPLC). The class given is cell-based. Particulars: NaHS 30-300 μM. An excerpt:
The data support results obtained from neurotransmitter release studies which show a decrease in norepinephrine output.
To determine the mechanism of action of H2S donors on sympathetic neurotransmitter pools in the anterior uvea, the direct effect of NaHS was studied on catecholamine (norepinephrine, epinephrine and dopamine) concentrations in porcine iris-ciliary bodies using […] Liquid Chromatography techniques. […] Data from this study supports the previous observation that H2S donors can reduce the release of [^3H]NE from isolated porcine irides. It appears that by reducing the availability of the neurotransmitter (norepinephrine), H2S can attenuate sympathetic neurotransmission in porcine anterior uvea.

The subject of data set [3] is normotensive, conscious albino rabbits. The data set can be described thus: Intraocular pressure after topical application in normotensive, conscious albino rabbits (pneumatonometer). An excerpt: A 1% dose of NaHS was applied topically to one eye and the saline vehicle to the other eye.
The effect of a generator of H2S in biological tissues (NaHS) on intraocular pressure in normotensive, conscious albino rabbits was examined. In the eyes of a rabbit, the desired intraocular pressure is around 20 mm Hg. While in human, the desired intraocular pressure in the eye is in the range of from about 12 mm Hg to 15 mm Hg. Ranges of about 18 to 24 mm Hg in a human eye are generally considered elevated. Two baseline intraocular pressure measurements were made in nine rabbits using a pneumatonometer (Medtronic, Model 30 Classic, Jacksonville, Fla.) at −1, and 0 hour after topical application of proparacaine 0.5%. NaHS (1%, dissolved in sterile saline solution) was applied topically to one eye of each animal while the saline vehicle was administered to the other (control) eyes. Intraocular pressures were measured in both eyes at +0.5, +1, +3, and +6 hours after instillation of the drug and vehicle.

Read-outs that look alike come from different tables or passages of the source.

Take `NOCC(=O)O` [AOA, aminooxyacetic acid, reference compound]: the “effect on NaHS-induced inhibition of evoked [3H]NE release” value in data set [1] is on record as “blocked the inhibitory response elicited by NaHS”. Moreover, the “shift of concentration-response curves to NaHS” value (shortened to “shift … to NaHS”) in the data set on isolated porcine iris (AOA 30 μM) is on record as “significant (P<0.001) rightward shifts”.

For the molecule `N#CC[C@H](N)C(=O)O` [BCA, β-cyano-L-alanine], the “shift … to NaHS” value in the data set on isolated porcine iris (modifier 1 mM) is “shifted concentration-response curves to NaHS to the right”.

As a reminder, the IC50 is the concentration at which inhibition is half-maximal. A high value points to weaker potency in that assay. As to `S` [NaHS, sodium hydrosulfide], in data set [1] (1 μM applied 8 minutes before and during S2), the “stimulation-evoked [3H]NE release” value is listed as “marked inhibition”. Also, the “electrically-evoked [3H]NE overflow” value in data set [1] (NaHS 0.1-100 μM) is “concentration-dependent inhibition”. In addition, the “norepinephrine concentrations in the isolated porcine iris-ciliary body” value in data set [2] was “concentration-dependent decrease”. The “relaxation of tone induced by a submaximal concentration of carbachol” value in the data set with isolated porcine iris (NaHS 30 nM-100 μM) is reported as “concentration-related relaxation”. In addition, the “relative potency in eliciting relaxation of tone” value with isolated porcine iris (NaHS versus Na2S) is recorded as “more potent than Na2S”. Also, inhibition in the data set with isolated porcine iris (Sus scrofa, concentration range 30 nM to 300 μM) was half-maximal at 7 µM (IC50). For the same molecule, in data set [3] (NaHS 1% in sterile saline, topical, one eye, measured +0.5, +1, +3, +6 hours), the “effect on intraocular pressure in the treated eyes” value is on record as “time-dependent significant (p<0.001) reduction in intraocular pressure”. Besides, in data set [3] (NaHS 1% topical to the other eye), the “intraocular pressure in contralateral eyes treated with only the saline vehicle” value is listed as “parallel (but smaller) decrease in intraocular pressure”. Further, in data set [3] (NaHS 1% topical, experimental and control eyes, all times tested), the “hyperemia and/or papillary changes” value is reported as “No hyperemia and/or papillary changes were observed”. For the same molecule, the “time of maximum reduction in intraocular pressure” value in data set [3] (NaHS 1% topical, treated eyes) was found to be 3 h. Further, the “intraocular pressure after 6 hours” value in data set [3] (NaHS 1% topical, treated eyes, 6 hours) is listed as “remained depressed”.

For the molecule `C#CCC(N)C(=O)O` (stereo not shown) [PAG, propargylglycine, reference compound], in data set [1], the “effect on NaHS-induced inhibition of evoked [3H]NE release” value is “blocked the inhibitory response elicited by NaHS”. For the same molecule, in the data set with isolated porcine iris (modifier 1 mM), the “shift … to NaHS” value is reported as “shifted concentration-response curves to NaHS to the right”.

On to `C[S+](CC[C@H](N)C(=O)O)C[C@H]1O[C@@H](n2cnc3c(N)ncnc32)[C@H](O)[C@@H]1O` (stereo partly drawn) [SAM, S-adenosyl-L-methionine], for which, in the data set on isolated porcine iris, the “effect on relaxations induced by the higher concentration of NaHS” value is “attenuated” and the “shift of NaHS concentration-response curve” value is on record as “significant leftward shift”.

Regarding `COc1ccc(Cl)cc1C(=O)NCCc1ccc(S(=O)(=O)NC(=O)NC2CCCCC2)cc1` [glibenclamide], the “shift … to NaHS” value in the data set with isolated porcine iris (glibenclamide 300 μM) is “significant rightward shift”.

Take sodium sulfide [Na2S]: in data set [1], the basal tritium efflux result is listed as “without affecting basal tritium efflux” and the “electrically-evoked [3H]NE release” value is on record as “concentration-dependent inhibition”. In the data set with isolated porcine iris, this molecule showed an IC50 of 70 µM.
